Like-named read-outs stand apart in the source and are kept apart here.

The values that follow come from patent publication US12357621B2, “BET inhibitors as a treatment for myelofibrosis” (Impact Biomedicines, Inc., priority 2021, dated 2025).

For data set [1] the following is noted: 125 mg QD; clinical studies; cited from earlier work.
In data set [2] the test system is primary human myelofibrosis samples. As to the kind of experiment: Colony formation assay in primary myelofibrosis samples (Example 2). The format is cell-based. The settings on record: for IC50: Homo sapiens. Here is the method: (§1) Bone marrow or peripheral blood mononuclear cells from myelofibrosis (MF) patients were directly seeded in semisolid Methocult media (H3404) with Compound (I) alone, (at concentrations ranging from 1.25 to 10 nM) or in combination with Fed (at 100 and 300 nM) or Rux (at 30 and 100 nM). Treatment was added at the beginning and maintained throughout the 14-day incubation period without compound washout.
(§2) Colony forming unit (CFU) data acquisition and automatic colony counting were performed using the STEMvision device and software (StemCell Technologies, Vancouver, Canada). Counting corrections according to standard criteria were done manually by a trained user. GraphPad Prism 7 was used for data plotting and analysis.

In data set [3] the test system is cell models expressing mutationally active JAK2V617F or FLT3ITD. The settings on record: cited from earlier work.
In data set [4] the test system is mouse models of JAK2V617F-driven myeloproliferative disease. Particulars: in vivo; cited from earlier work.
The test system of data set [5] is HEL92.1.7 cells. Put plainly: CellTiter-Glo proliferation/viability assay, single agent and JAKi combination (Example 1). The settings on record: single agent; for IC50: 3 days incubation, CTG. It is filed as cell-based. How it is done: (§3) HEL92.1.7 and SET-2 are post-MPN secondary acute myeloid leukemia (sAML) cell lines that harbor the JAK2 V617F mutation and serve as cell line models of the malignant clones driving disease in MPNs.
(§4) HEL92.1.792.1.7 (post-MPN sAML), a homozygous mutant (V617F), SET-2 (post-MPN sAML), a heterozygous mutant (V617F), were cultured in Roswell Park Memorial Institute (RPMI) 1640 medium (ATCC) supplemented with 10% or 20% fetal b ovine serum (FBS) (Corning) for HEL92.1.792.17 or SET-2 respectively, 2 mM L-glutamine (L-glu) (Gibco), and non-essential amino acid 1× (NEAA) cell culture supplement (Gibco). WI-38 primary lung fibroblastWI-38 were cultured in Eagle's Minimum Essential Medium (EMEM) (ATCC) with 10% FBS, 2 mM L-glu, and 1× NEAA.
(§5) CellTiter-Glo® (CTG), a luminescent dye that measures adenosine-5′-triphosphate (ATP), was used to quantify the cell proliferation in the 3 cell types in duplicate. Compound (I) was pre-spotted into 384-well plates (diluted in final dimethyl sulfoxide [DMSO] concentration of 0.1% for assay volume of 50 μL). A 10-point dose-response starting at […] with a 4-fold dilution that included one DMSO point and nine drug points was tested for each cell line. The JAK inhibitors (JAKi) Rux and Fed were also pre-spotted at concentrations of 0, 0.03, 0.1, 0.3, and 0.6 μM and HEL92.1.7 constant for each 10-point the Compound (I) dose-response curve (DRC) to produce five compounds of formula (I) DRCs for each JAKi in each cell line.
(§6) A cell suspension volume of 50 μL at their respective seeding densities was added to 384-well plates containing Compound (I) plus JAKi. The effect of Compound (I) single agent or JAKi combination on the proliferation/viability of cells was assessed after 3 days of incubation. Twenty-five microliters of CTG per well was then dispensed to the cell suspension, and ATP released by viable cells was measured after a 30-minute incubation as relative luminescence units (RLU) using an EnVision plate reader (PerkinElmer, Covina, CA). Cytotoxicity was indicated by a lower ATP level in the media after 3-day drug treatment compared to the Day 0 ATP level. Day 0 CTG was read for HEL92.1. and SET-2 suspension cell lines while the Day 0 CTG read for WI-38 could not be read because it is an adherent cell line.
(§7) Percent growth (% Growth) was calculated with the equation [% Growth=(Day 5 RLU—Day 0 RLU)/(Day 0 RLU)] while percent DMSO (% DMSO) was calculated with the equation [% DMSO=(Treatment RLU/DMSO RLU)×100]. All data was analyzed by GraphPad Prism 7 with the XY analyses nonlinear regression curve fit using the parameters for “log(inhibitor) vs. response—Variable slope (four parameters).” Cytotoxicity was called if any part of the DRC CTG signal went below the Day 0 CTG read and cytostatic effects were indicated by the DRC CTG signal staying above the Day 0 line.
(§8) Combination analysis was performed with software Combenefit version 2.021. Combination matrix plots describing additivity effects were generated with the Highest Single-Agent (HSA) model, combination matrix plots describing synergy effects were generated with the Bliss model, and the HSA and Bliss scores for each combination matrix plot were tabulated. An arbitrary cut off-of 10 for HSA and Bliss scores was used to reflect significant additivity and synergy, respectively. […]
In general terms: In ATP-based viability assays light output follows the ATP content of the culture.

Data set [6] has as its system SET-2 cells. The description is as above. The format is cell-based. Particulars: single agent. Here is the method: as §3, §4, §5, §6, §7, §8
Data set [7] concerns bone marrow CD34+ cells from healthy volunteers. Put plainly: Colony-forming assay with normal hematopoietic progenitors (Example 2). It is filed as cell-based. Particulars: Homo sapiens, 336 h, healthy donors, 14 days. How it is done: as §1
To test the effects of Compound (I) on the functionality of normal hematopoietic progenitors, colony-forming assays were also done with bone marrow CD34^+ cells from healthy volunteers using the same conditions of treatment as described for MF samples.
as §2

The subject of data set [8] is HEL92.1.7 cells. Put plainly: CellTiter Glo cell viability assay (Example 5). The settings on record: for IC50: Homo sapiens. The format is cell-based. How it is done: (§9) Cells were seeded in 96-well plates at 10,000 cells per well in 100 μL of media containing either 0.1% DMSO or varying concentrations of drug. Cell viability was determined 3 days and 5 days later via the CellTiter GloLuminescent Cell Viability Assay from Promega (Madison, WI) according to the manufacturer's protocol. Specifically, 50 μL of reagent was added to each well and plates were incubated for 10 minutes in the dark to stabilize the luminescent signal. Luminescence was then detected using a chemiluminescence detection system (EnVision Multimode Microplate Reader; PerkinElmer).

The test system of data set [9] is SET-2 cells. As to the kind of experiment: CellTiter Glo cell viability assay (Example 5). It is filed as cell-based. Particulars: for IC50: Homo sapiens. Here is the method:
as §9

A short description of data set [10]: First-in-human PK study of Compound (I) (Example 6). The format is in vivo. The settings on record: for Cmax: Cycle 2 Day 5, 5 days on/2 days off, read-out: Cmax Cycle 2 Steady State (geometric mean). How it is done:
A first-in-human study was conducted on Compound (I) with select advanced tumors and hematologic malignancies. PK data was available from 65 subjects across 5 doses and 3 schedules. Intensive samples were collected on Cycle 1 Day 1 and Cycle 2 Day 5, Day 7, or Day 14 based on dosing schedule (5 days on/2 days off, 7 days on/14 days off, and 14 days on/7 days off).

As usually defined, the Cmax is the highest concentration seen after dosing. Turning to `Cc1noc2c1-c1ccccc1C(c1ccc(Cl)cc1)=N[C@H]2CC(N)=O` [CPI-0610], in [1], the peak concentration (Cmax) was 4000 nM and the T1/2 was 16 h.
As a reminder, the IC50 is the midpoint of a concentration-inhibition curve. Take `Cc1cnc(Nc2ccc(OCCN3CCCC3)cc2)nc1Nc1cccc(S(=O)(=O)NC(C)(C)C)c1` [fedratinib]: the concentration for half-maximal inhibition (IC50) in [2] (sample MF 18 (JAK2), fedratinib alone, read-out: IC50 FEDR) amounted to 146 nM; in [2] (sample MF 22 (WT), fedratinib alone, read-out: IC50 FEDR), 309 nM; in data set [2] (sample MF 29 (JAK2), fedratinib alone, read-out: IC50 FEDR) it was 472 nM; in [2] (sample MF 31 (CALR), fedratinib alone, read-out: IC50 FEDR) it was 908 nM; in data set [2] (sample MF 33 (CALR), fedratinib alone, read-out: IC50 FEDR) it was 930 nM; in [2] (sample MF 38 (WT), fedratinib alone, read-out: IC50 FEDR), 931 nM. Further, the 50% inhibitory concentration (IC50) in data set [2] (sample MF 54 (JAK2), fedratinib alone, read-out: IC50 FEDR) is 381 nM; in data set [2] (sample MF 63 (CALR), fedratinib alone, read-out: IC50 FEDR) it was 779 nM; in data set [2] (sample MF 76 (JAK2), fedratinib alone, read-out: IC50 FEDR), above 1000 nM; in data set [2] (sample MF 77 (JAK2), fedratinib alone, read-out: IC50 FEDR) it was 695 nM. Further, the apoptotic cell death result in data set [3] is listed as “induced”. Further, the cell proliferation result in data set [3] is “inhibited”. Further, the “phosphorylation of STAT3 and STAT5 proteins” value in data set [3] is “reduced”. For the same compound, the “phosphorylation of STAT3/5” value in [4] is reported as “blocked”. Further, in data set [4], the “survival, WBC counts, hematocrit, splenomegaly, and fibrosis” value is listed as “improved”.
By half-life is commonly meant the time in which the quantity being followed falls by half. As for `Cc1nnn(C)c1-c1cnc2c3ccc(C(C)(C)O)cc3n([C@H](c3ccccc3)C3CCOCC3)c2c1` [Compound (I)], the concentration for half-maximal inhibition (IC50) is 6.2 nM with HEL92.1.7 cells [5] (Homo sapiens, HEL 92.1.7, 72 h); 5.6 nM in the data set on HEL92.1.7 cells [5]; 1.9 nM in the data set on SET-2 cells [6] (Homo sapiens, 72 h, 3 days incubation, CTG); 1.25 to 4.46 nM in data set [2] (336 h, range among 10 primary human myelofibrosis samples, 14 days, read-out: IC50 values for inhibition of colonies); 1.58 nM in data set [2] (336 h, sample MF 18 (JAK2), single agent, colony formation 14 days, read-out: IC50 Compound (I)); 3.7 nM in data set [2] (336 h, sample MF 22 (WT), single agent, colony formation 14 days, read-out: IC50 Compound (I)). The IC50 was found to be 2.56 nM in data set [2] (336 h, sample MF 29 (JAK2), single agent, colony formation 14 days, read-out: IC50 Compound (I)); 2.02 nM in [2] (336 h, sample MF 31 (CALR), single agent, colony formation 14 days, read-out: IC50 Compound (I)); 4.46 nM in data set [2] (336 h, sample MF 33 (CALR), single agent, colony formation 14 days, read-out: IC50 Compound (I)); 2.11 nM in data set [2] (336 h, sample MF 38 (WT), single agent, colony formation 14 days, read-out: IC50 Compound (I)); 1.25 nM in data set [2] (336 h, sample MF 54 (JAK2), single agent, colony formation 14 days, read-out: IC50 Compound (I)); 2.6 nM in data set [2] (336 h, sample MF 63 (CALR), single agent, colony formation 14 days, read-out: IC50 Compound (I)). Besides, the concentration for half-maximal inhibition (IC50) in data set [2] (336 h, sample MF 76 (JAK2), single agent, colony formation 14 days, read-out: IC50 Compound (I)) was 3.43 nM; in data set [2] (336 h, sample MF 77 (JAK2), single agent, colony formation 14 days, read-out: IC50 Compound (I)) it was 1.27 nM; in data set [7] (read-out: IC50 for inhibition of BFU-E), around 2.3 nM; in [7] (CFU-GM, read-out: IC50 for inhibition of CFU-GM) it was around 3 nM; with HEL92.1.7 cells [8] (HEL 92.1.7, 72 h, Day 3, read-out: single agent IC50), 15 nM; in the data set with HEL92.1.7 cells [8] (HEL 92.1.7, 120 h, Day 5, read-out: single agent IC50), 19 nM. Further, the IC50 in the data set on SET-2 cells [9] (72 h, Day 3, read-out: single agent IC50) is 2.8 nM; in the data set with SET-2 cells [9] (120 h, Day 5, read-out: single agent IC50), 2.4 nM. The “cytotoxic vs cytostatic effect” value with HEL92.1.7 cells [5] (CTG signal vs Day 0) and with SET-2 cells [6] (CTG signal vs Day 0) was “cytotoxic effects” in each case. Also, the “therapeutic index (TI)” value in data set [2] (in 7 out of 10 MF samples, ratio of IC50 in MF sample and average IC50 in normal bone marrow CD34+ cells) is above 1 fold. The “activity compared to CPI-0610” value in the data set with HEL92.1.7 cells [8] (viability) and in the data set with SET-2 cells [9] (viability) was “better activity” each time. For the same compound, the Cmax is 272 nM in data set [10] (dose 0.75 mg); 577 nM in data set [10] (dose 1.25 mg); 892 nM in data set [10] (dose 2.0 mg); 1200 nM in [10] (human, in vivo, dose 3.0 mg); 1840 nM in data set [10] (human, in vivo, dose 4.5 mg). Moreover, the half-life in data set [10] (in vivo, single dose, 5 days on/2 days off schedule, human, read-out: terminal half-life (converted)) was around 64 h.
Take `N#CC[C@H](C1CCCC1)n1cc(-c2ncnc3[nH]ccc23)cn1` [ruxolitinib]: the IC50 in [2] (sample MF 18 (JAK2), ruxolitinib alone, read-out: IC50 RUX) stood at 35.5 nM; in data set [2] (sample MF 22 (WT), ruxolitinib alone, read-out: IC50 RUX), 212 nM; in data set [2] (sample MF 29 (JAK2), ruxolitinib alone, read-out: IC50 RUX) it was 212 nM; in data set [2] (sample MF 31 (CALR), ruxolitinib alone, read-out: IC50 RUX) it was 284 nM; in data set [2] (sample MF 33 (CALR), ruxolitinib alone, read-out: IC50 RUX), 862 nM; in data set [2] (sample MF 38 (WT), ruxolitinib alone, read-out: IC50 RUX), 217 nM. Further, the IC50 in [2] (sample MF 54 (JAK2), ruxolitinib alone, read-out: IC50 RUX) was determined as 686 nM; in data set [2] (sample MF 63 (CALR), ruxolitinib alone, read-out: IC50 RUX), 70.6 nM; in data set [2] (sample MF 76 (JAK2), ruxolitinib alone, read-out: IC50 RUX), 686 nM; in [2] (sample MF 77 (JAK2), ruxolitinib alone, read-out: IC50 RUX) it was 528 nM.
